From patent US20230312578A1, “6H-INDOLO[2,3-B]QUINOXALINE DERIVATIVES USEFUL IN THERAPY” (Vironova Medical AB, priority 2020, published 2023)
Like-named read-outs stand apart in the source and are kept apart here.

Legend:
Type in all cases: cell-based
[1] = tested on: HL-60(TB); assay: Human tumor cell line growth assay (SRB); details: Leukemia, 48 h; for CC50: read-out: LC50 (the source's name)
[2] = Human tumor cell line growth assay (SRB); details: human, MOLT-4 cells (leukemia), MOLT-4, 48 h, read-out: LC50
[3] = tested on: MOLT-4; assay: Human tumor cell line growth assay (SRB); details: Homo sapiens; Leukemia, MOLT-4, 48 h
[4] = Human tumor cell line growth assay (SRB); details: human, A549/ATCC cells (NSCLC), read-out: LC50
[5] = tested on: A549/ATCC; assay: Human tumor cell line growth assay (SRB); details: Homo sapiens, NSCLC, 48 h
[6] = Human tumor cell line growth assay (SRB); details: human, HOP-92 cells (NSCLC), HOP-92, 48 h
[7] = tested on: HOP-92; assay: Human tumor cell line growth assay (SRB); details: Homo sapiens; NSCLC, HOP-92, 48 h
[8] = Human tumor cell line growth assay (SRB); details: human, NCI-H23 cells (NSCLC), NCI-H23, 48 h, read-out: LC50
[9] = tested on: NCI-H23; assay: Human tumor cell line growth assay (SRB); details: Homo sapiens; NSCLC, NCI-H23, 48 h
[10] = Human tumor cell line growth assay (SRB); details: human, NCI-H322M cells (NSCLC), read-out: LC50
[11] = tested on: NCI-H322M; assay: Human tumor cell line growth assay (SRB); details: Homo sapiens, NSCLC, 48 h
[12] = Human tumor cell line growth assay (SRB); details: human, COLO 205 cells (colon), COLO 205, 48 h, read-out: LC50
[13] = tested on: COLO 205; assay: Human tumor cell line growth assay (SRB); details: Homo sapiens; Colon, COLO 205, 48 h
[14] = Human tumor cell line growth assay (SRB); details: human, HCC-2998 cells (colon), HCC-2998, 48 h, read-out: LC50
[15] = tested on: HCC-2998; assay: Human tumor cell line growth assay (SRB); details: Homo sapiens; Colon, HCC-2998, 48 h
[16] = Human tumor cell line growth assay (SRB); details: human, HCT-116 cells (colon), HCT-116, 48 h, read-out: LC50
[17] = tested on: HCT-116; assay: Human tumor cell line growth assay (SRB); details: Homo sapiens; Colon, HCT-116, 48 h
[18] = Human tumor cell line growth assay (SRB); details: human, HT29 cells (colon), HT29, 48 h, read-out: LC50
[19] = Human tumor cell line growth assay (SRB); details: human, U251 cells (CNS), U251, 48 h, read-out: LC50
[20] = tested on: U251; assay: Human tumor cell line growth assay (SRB); details: Homo sapiens, U-251; CNS, U251, 48 h
[21] = Human tumor cell line growth assay (SRB); details: human, SK-MEL-5 cells (melanoma), SK-MEL-5, 48 h
[22] = tested on: SK-MEL-5; assay: Human tumor cell line growth assay (SRB); details: Homo sapiens; Melanoma, SK-MEL-5, 48 h
[23] = Human tumor cell line growth assay (SRB); details: human, OVCAR-3 cells (ovarian), OVCAR-3, 48 h, read-out: LC50
[24] = tested on: OVCAR-3; assay: Human tumor cell line growth assay (SRB); details: Homo sapiens; Ovarian, OVCAR-3, 48 h
[25] = Human tumor cell line growth assay (SRB); details: human, OVCAR-5 cells (ovarian), OVCAR-5, 48 h, read-out: LC50
[26] = tested on: OVCAR-5; assay: Human tumor cell line growth assay (SRB); details: Homo sapiens; Ovarian, OVCAR-5, 48 h
[27] = tested on: NCI/ADR-RES; assay: Human tumor cell line growth assay (SRB); details: Ovarian, 48 h; for CC50: read-out: LC50 (the source's name)
[28] = tested on: 786-0; assay: Human tumor cell line growth assay (SRB); details: Renal, 786-0, 48 h
[29] = tested on: A498; assay: Human tumor cell line growth assay (SRB); details: Renal, A498, 48 h; for CC50: read-out: LC50 (the source's name)
[30] = tested on: TK-10; assay: Human tumor cell line growth assay (SRB); details: Renal, TK-10, 48 h; for CC50: read-out: LC50 (the source's name)
[31] = tested on: MDA-MB-231/ATCC; assay: Human tumor cell line growth assay (SRB); details: Breast, 48 h; for CC50: read-out: LC50 (the source's name)
[32] = tested on: MDA-MB-468; assay: Human tumor cell line growth assay (SRB); details: Breast, MDA-MB-468, 48 h; for CC50: read-out: LC50 (the source's name)
[33] = tested on: HS 578T; assay: Human tumor cell line growth assay (SRB); details: Breast, 48 h; for CC50: read-out: LC50 (the source's name)
[34] = tested on: T-47D; assay: Human tumor cell line growth assay (SRB); details: T47D, Breast, 48 h; for CC50: read-out: LC50 (the source's name)
[35] = Human tumor cell line growth assay (SRB); details: human, SR cells (leukemia), read-out: LC50
[36] = tested on: SR; assay: Human tumor cell line growth assay (SRB); details: Homo sapiens, Leukemia, 48 h
[37] = tested on: Human tumor cell lines; assay: Human tumor cell line growth assay (SRB), summary over the panel; details: overall over the panel

## Cc1cc2nc3c4ccccc4n(CCN(C)C)c3nc2cc1C [B220, 2-(2,3-dimethyl-6H-indolo [2,3-b]quinoxalin-6-yl)-N,N-dimethylethanamine, reference compound]
[1]
  GI50: 1990 nM
  CC50: > 100000 nM
[2]
  CC50 at 48 h: 95100 nM
[3]
  GI50: 555 nM
[4]
  CC50 at 48 h: > 100000 nM
[5]
  GI50: 1280 nM
[6]
  LC50 at 48 h: > 100000 nM
[7]
  GI50: 1360 nM
[8]
  CC50 at 48 h: 45600 nM
[9]
  GI50: 1870 nM
[10]
  CC50 at 48 h: 31200 nM
[11]
  GI50: 1860 nM
[12]
  CC50 at 48 h: 41000 nM
[13]
  GI50: 1290 nM
[14]
  CC50 at 48 h: 15700 nM
[15]
  GI50: 1470 nM
[16]
  CC50 at 48 h: 44500 nM
[17]
  GI50: 488 nM
[18]
  CC50 at 48 h: 45300 nM
[19]
  CC50 at 48 h: 44600 nM
[20]
  GI50: 2010 nM
[21]
  LC50 (concentration killing 50% of tumour cells) at 48 h: 12000 nM
[22]
  GI50: 1700 nM
[23]
  CC50 at 48 h: 56800 nM
[24]
  GI50: 1910 nM
[25]
  CC50 at 48 h: 33400 nM
[26]
  GI50: 2100 nM
[27]
  GI50: 1390 nM
  CC50: 90200 nM
[28]
  GI50: 1970 nM
  LC50: 62000 nM
[29]
  GI50: 1430 nM
  CC50: 5740 nM
[30]
  GI50: 2970 nM
  CC50: 71400 nM
[31]
  GI50: 1760 nM
  CC50: 54900 nM
[32]
  GI50: 1320 nM
  CC50: 9930 nM
[33]
  GI50: 1570 nM
  CC50: 67400 nM
[34]
  GI50: 2800 nM
  CC50: > 100000 nM

## COc1ccc2c(c1)c1nc3cc(C)c(C)cc3nc1n2CCN(C)C [JBA-094, 2-(9-methoxy-2,3-dimethyl-6H-indolo[2,3-b]quinoxalin-6-yl)-N,N-dimethylethanamine]
[1]
  GI50: 1180 nM
  CC50: > 100000 nM
[2]
  CC50 at 48 h: 96000 nM
[3]
  GI50: 420 nM
[35]
  CC50 at 48 h: > 100000 nM
[36]
  GI50: 409 nM
[4]
  CC50 at 48 h: 7970 nM
[5]
  GI50: 482 nM
[6]
  LC50 at 48 h: 6080 nM
[7]
  GI50: 238 nM
[8]
  CC50 at 48 h: 8200 nM
[9]
  GI50: 973 nM
[10]
  CC50 at 48 h: 6410 nM
[11]
  GI50: 778 nM
[13]
  GI50: 561 nM
[14]
  CC50 at 48 h: 6320 nM
[15]
  GI50: 1080 nM
[16]
  CC50 at 48 h: 6590 nM
[17]
  GI50: 312 nM
[18]
  CC50 at 48 h: 5720 nM
[19]
  CC50 at 48 h: 6090 nM
[20]
  GI50: 526 nM
[21]
  LC50 (concentration killing 50% of tumour cells) at 48 h: 5580 nM
[22]
  GI50: 1660 nM
[23]
  CC50 at 48 h: 6130 nM
[24]
  GI50: 1260 nM
[25]
  CC50 at 48 h: 5280 nM
[26]
  GI50: 1120 nM
[27]
  GI50: 588 nM
[28]
  GI50: 1040 nM
  LC50: 6520 nM
[29]
  GI50: 1480 nM
  CC50: 5560 nM
[30]
  GI50: 1960 nM
  CC50: 6920 nM
[31]
  GI50: 1140 nM
  CC50: 6390 nM
[32]
  GI50: 749 nM
  CC50: 6900 nM
[33]
  GI50: 1930 nM
  CC50: 78700 nM
[34]
  GI50: 1320 nM
  CC50: > 100000 nM

## Cc1cc2nc3c4cc(O)ccc4n(CCN(C)C)c3nc2cc1C [JBD-139, 6-(2-(dimethylamino)ethyl)-2,3-dimethyl-6H-indolo [2,3-b]quinoxalin-9-ol]
[1]
  GI50: 356 nM
[2]
  CC50 at 48 h: > 100000 nM
[3]
  GI50: 359 nM
[35]
  CC50 at 48 h: > 100000 nM
[36]
  GI50: 289 nM
[5]
  GI50: 358 nM
[6]
  LC50 at 48 h: > 100000 nM
[7]
  GI50: 246 nM
[9]
  GI50: 506 nM
[10]
  CC50 at 48 h: > 100000 nM
[11]
  GI50: 516 nM
[12]
  CC50 at 48 h: > 100000 nM
[13]
  GI50: 470 nM
[15]
  GI50: 750 nM
[17]
  GI50: 326 nM
[18]
  CC50 at 48 h: > 100000 nM
[20]
  GI50: 356 nM
[21]
  LC50 (concentration killing 50% of tumour cells) at 48 h: 5330 nM
[22]
  GI50: 1450 nM
[24]
  GI50: 970 nM
[25]
  CC50 at 48 h: > 100000 nM
[26]
  GI50: 867 nM
[27]
  GI50: 436 nM
  CC50: > 100000 nM
[28]
  GI50: 707 nM
[29]
  GI50: 948 nM
  CC50: 5690 nM
[30]
  GI50: 1740 nM
  CC50: > 100000 nM
[31]
  GI50: 544 nM
[32]
  GI50: 518 nM
  CC50: > 100000 nM
[33]
  GI50: 1400 nM
  CC50: > 100000 nM
[34]
  GI50: 686 nM
[37]
  cytotoxicity, comparison in words: cytotoxicity that is higher
